Results on two compounds are retold here after patent US20250049775A1, “USE OF AMINOPYRAZOLE COMPOUNDS” (Intervet Inc., priority 2021, published 2025).

Data set [1] can be described thus: pilot Target Animal Safety (margin of safety) study, oral, 4 months. Type of data set: in vivo, Beagle dog. How it is done:
A pilot Target Animal Safety study has been performed.
The objective of this study was to provide margin of safety information on Compound 1 at 1, 3 and 5 times the maximum recommended commercial dose (0.6 mg/kg body weight twice daily for two weeks and once daily thereafter (BID), or 1.2 mg/kg body weight daily (SID)) in 8-month-old Beagle dogs (at initiation of dosing), when given orally for 4 months (112 consecutive days). The clinical loading phase of 2 weeks for the BID treatment schedule was prolonged to 6 weeks in this study in accordance with VICH GL43 (3 times the proposed duration).
The test item was the final formulation blend of the investigational veterinary product, filled into gelatine capsules for dose administration. The control article was blank (empty) gelatine capsules.
In addition to that, a 4-month pilot target animal safety study has been conducted in 6-months old dogs utilizing either doses of 0.6, 1.8 or 3.0 mg/kg twice daily over the first 6 weeks (loading phase) and reducing to once daily thereafter (BID), or a dose of 6.0 mg/kg administered once daily over the whole study period (SID) compared to a control group, using 3 males and 3 females per group (Robertson, 2021).

The nature of data set [2]: Tmax after oral dosing. In kind it is in vivo, Beagle dog. The settings on record: laboratory Beagle dogs. How it is done: (§1) Using a randomized, non-blinded, cross-over study design, Compound 1 (1 mg/kg body weight), Apoquel®, or placebo was dosed orally to laboratory Beagle dogs 2 h prior to a cIL-31 challenge (approximate Tmax of Compound 1 and Apoquel®).
Data set [3] concerns cIL-31 induced pruritus. In words: canine interleukin-31 (cIL-31) induced pruritus model. In kind it is in vivo, Beagle dog.
Description: A canine interleukin-31 (cIL-31) induced pruritus model in the Beagle dog was used to inform on the dose of Compound 1 required to inhibit JAK1 signaling in vivo. The cIL-31 induced pruritus model is a relevant model of acute pruritus associated with atopic and allergic dermatitis in dogs. The magnitude of the suppression of cIL-31 induced pruritus by JAK inhibitors is predictive of their pruritus suppression in patients with allergic or atopic dermatitis As a measure of JAK-1 inhibition in vivo, and by extension the anticipated clinical efficacy of Compound 1, we evaluated Compound 1 in a relevant pharmacodynamic model and included a clinical reference.
as §1
In a second study using a randomized, non-blinded crossover design, several doses of Compound 1 were evaluated (0.5, 0.1 and 0.05 mg/kg body weight); Apoquel® and placebo treatments were also included.

The test system of data set [4] is pruritus and lesions of allergic or atopic dermatitis. The conditions noted are these: cited from earlier work.
In data set [5] the test system is cIL-31 induced pruritus. The settings on record: prior treatment, Beagle dogs, Gonzales et al. 2016; cited from earlier work.
The conditions of data set [6]: cited from earlier work.
[7] abbreviates: dogs with allergic or atopic dermatitis, Cosgrove et al. 2013.

Regarding `COc1cc(Nc2nn([C@H]3COCC[C@@H]3C#N)cc2C(N)=O)cc(F)n1` (single isomer, unassigned) [Compound 1, 1-((3R,4S) or (3S,4R)-4-cyanotetrahydro-2H-pyran-3-yl)-3-((2-fluoro-6-methoxypyridin-4-yl)amino)-1H-pyrazole-4-carboxamide)], in data set [1] (all doses, male and female dogs, oral, 4 months), the “changes in body weight, food consumption, ophthalmic examinations, electrocardiology or blood pressure” value was “no changes”. Moreover, the tolerability entry in data set [1] (daily oral, up to 5 times the recommended maximum commercial dose of 1.2 mg/kg body weight (BID or SID), 6-month-old beagle dogs) is given as “well tolerated”. In addition, the clinical findings entry in data set [1] (overdosed animals) was “Minor clinical findings (e.g., interdigital cysts, conjunctivitis, gingivitis, diarrhoea)”. Besides, the entries for the “susceptibility to minor infections” value in data set [1] (recommended maximum commercial dose) and in data set [1] (repeated overdoses) were “no increased susceptibility to minor infections” and “increased susceptibility to minor infections”, respectively. The overall safety conclusion result in data set [1] (young dogs) is on record as “safe for use in young dogs”. Further, the time of peak concentration (Tmax) in data set [2] (dog, in vivo, 1 mg/kg body weight, read-out: approximate Tmax) is around 2 h. The “suppression of cIL-31 induced pruritus” value in data set [3] (0.05 mg/kg body weight, second study) was “not”; in data set [3] (0.1 mg/kg body weight, second study) it was “not”; in data set [3] (0.5 mg/kg body weight, second study) it was “significantly suppressed”; in data set [3] (1 mg/kg body weight oral, 2 h prior to cIL-31 challenge, observed 2 h) it was “significantly suppressed”. The “magnitude of effect compared with Apoquel” value in data set [3] (0.5 mg/kg, second study) was “similar”.

oclacitinib maleate [Apoquel]: in data set [4] (setting [7]), the effect on lesions entry was “reduces lesions” and the effect on pruritus result was “rapid amelioration of pruritus”. Besides, the haematology effect result in data set [4] (higher doses, FOI Summary NADA 141-345, Gonzales et al. 2014) is “reduction in hematocrit, hemoglobin, and reticulocyte counts”. For the same compound, the “approximate Tmax” value in data set [2] is on record as around 2 h. Besides, the “inhibition of cIL-31 induced pruritic response” value in data set [5] is recorded as “can be inhibited”. For the same compound, the dogs requiring euthanasia entry in data set [6] (after 4 months, 0, 1, 3, 5 times 0.6 mg/kg twice per day, dogs about 6 months old) is listed as “two dogs required euthanasia”. Also, the “age dependence of adverse clinical effects” value in data set [6] (dog, in vivo) is “most severe adverse clinical effects were observed in dogs aged less than one year”. For the same compound, the “deaths from infection secondary to immunosuppression” value in data set [6] (including one death 28 days after discontinuation) is recorded as “two deaths”. Moreover, the “adverse finding attributed to treatment-related immunosuppression” value in data set [6] (several dogs in the mid and high dose groups) is listed as “clinical demodicosis”.

The Tmax is the time at which the peak concentration occurs.
